The nature of data set [1]: Plasma protein binding by equilibrium dialysis. Particulars: male, Wistar, pH 7.4, rat plasma, 10 μmol/L, read-out: fu rat (free unbound drug in plasma). The format is in vitro ADME. The procedure:
(§1) • Human A2a and A2b receptor pharmacology: Chinese hamster ovary CHO-K1 cells stably expressing human A2a and A2b receptors were used to determine substances agonistic potency and intrinsic activity. […] The signal corresponding to adenosine at 100 μmol/L was used to define 100% intrinsic activity. • Human A3 receptor pharmacology: A3 receptor Gi coupling was measured by GTPγ ^35[S] filter assay at serial dilutions of compound using membranes from Perkin-Elmer. The signal corresponding to the maximal response of NECA at 100 μmol/L was set to 100% intrinsic activity. • Lipopolysaccharide (LPS)-induced TNFα production in primary human peripheral blood mononuclear cells (hTNFα PBMC) and rat mononuclears (rTNFα splenocytes): Human PBMC and rat mononuclear spleen cells were incubated with serial dilutions of compound and stimulated with LPS.
The plasma protein binding was determined in plasma from male Wistar rats at a compound concentration of 10μM by equilibrium dialysis against a phosphate buffer at pH 7.4 using a semi-permeable membrane with a molecular cut-off of 6-8KDa (Spectra/Por, Spectrum Laboratories Inc, US). The compounds were dialyzed for 18h at 37±1°C in an air incubator on an orbital shaker. The samples were analysed using LC-MS/MS.
On the technique in general: In equilibrium dialysis only unbound substance equilibrates across the membrane.

For data set [2], the system named is allergen-challenged Brown Norway rats. Set-up: method as in Fozard et al. [2002]. Particulars: intratracheal; ref Fozard et al. [2002]; cited from earlier work.
Data set [3] relates to LPS-induced BAL neutrophils. Put plainly: LPS-induced lung inflammation model, neutrophils in BAL fluid. The format is in vivo, rat. Particulars: data not shown. The procedure: The efficacy of the compound on neutrophils in BAL fluid is expressed as per cent inhibition of the full window (negative veh/veh controls vs. the positive veh/LPS controls): Inhibition (%) of LPS-induced BAL neutrophils by compound 2 was calculated using the following formula: [drawing 1] where A is the average in the group administered with vehicle and challenged with LPS; B is the average in the group administered with vehicle and challenged with saline; and C is the average in the group administered with test compound and challenged with LPS.
Animals in all efficacy studies were dosed intratracheally as described above in a buffered saline vehicle (pH 5) containing sodium chloride (8.5mg/ml), citric acid (0.28mg/ml) and sodium citrate (0.5mg/ml). The compound was dissolved in saline when given intravenously (0.9% NaCl) to the swivelled rats.
[…] Each rat was given LPS from the Pseudomona Aeruginosa bacteria (1µg/rat, 5µg/ml saline, Sigma-Aldrich, Sweden).
24 hours after the LPS challenge, rats were anaesthetized and exsanguinated via a cardiac incision. A tube was inserted and ligated to the trachea. The tube was connected to a syringe with 4ml PBS (without Ca^2+/Mg^2+) and a lavage of the whole lung was performed manually. The BAL fluid was collected individually in polyethylene tubes and kept on ice until further processed.
The BAL fluid was centrifuged and the supernatant separated from the cell pellet that was resuspended in 1.0ml of PBS. The total number of cells and cell differentia was counted in an automated cell counter and haematology analyzer (SYSMEX XT-1800iV, software for the rat BALF).

The test system of data set [4] is LPS-induced TNFα production in rat splenocytes. In words: LPS-induced TNFα production in rat mononuclear spleen cells (rTNFα splenocytes). It counts as cell-based. To be noted: Splenocyte, LPS-stimulated TNFα release, rat splenocytes, average (SD); for Emax: read-out: rTNFα splenocytes Intrinsic activity. The procedure: as §1
Procedures and assays were run in R10 buffer (RPMI 1640 Medium supplemented with GlutaMAX™ and HEPES (GIBCO-BRL), 10% fetal calf serum, penicillin and streptomycin (each 5000IU/ml)). Human PBMC were purified from heparinised blood by Ficoll separation (Ficoll, Amersham Pharmacia Biotech AB, Cat: 17-1440-03, Lot: 312170) and rat mononuclear cells were collected after rat spleen perfusion. Both cell preparations were followed by hypotonic lysis of residual erythrocytes. Serial dilutions of compounds were pre-incubated with 200 000 cells/well (96-well plate) for 45min in 37 °C (190µl). Cells were stimulated by 10µl LPS (final concentration 0.5ng/ml human and 150ng/ml rat; SIGMA Cat: L-4516, Lot: 104K4036) for 18h at 37 °C. TNFα release was measured by ELISA (^TmR&D Systems plates) according to the manufacturer’s instructions in cell free supernatant.

The nature of data set [5]: In vivo pharmacokinetics in rats (i.v., oral, intratracheal). Particulars: for Rat blood clearance: i.v.; for half-life: lung, inhaled or intranasal, intratracheal dosing, n = 2/time point, read-out: Lung t½ (terminal half-life in lung) (converted); for Kp at 24 h: other: intratracheal (i.t.), i.t., ratio of lung concentration 24 h after dose to blood Cmax after same dose, read-out: Lung/blood split. The procedure:
Rat PK was determined after an i.v. dose of 0.1μmol/kg (approximately 50μg/kg, 1ml/kg, TEG:H2O 50:50) given via a catheter in vena jugularis. The PK after oral administration was performed at a dose of 6μmol/kg (approximately 3mg/kg, 4ml/kg, 0.5% HPMC) given by gavage. Intratracheal PK was determined at 0.03 to 0.6μmol/kg (17 to 300μg/kg, 1ml/kg, in a vehicle containing sodium chloride (8.5mg/ml), EDTA (0.1mg/ml), citric acid (0.15mg/ml), sodium citrate (0.5mg/ml) and polysorbate 80 (0.2mg/mL) in purified water). The i.t. dose was given to anaesthetized (isofluran) rats, positioned at approximately 30° angle (head up) and the compound was administered in the trachea using a modified metal cannula. Rats were put back in their cages while regaining consciousness. Serial blood sampling of 100 to 200µl was performed after i.v. and p.o. dosing at pre-defined timepoints. Blood was mixed 1:4 with purified water containing heparin (10 to 30U/ml) in order to haemolyse the blood cells, and then placed in a 96-well plate and stored at –70°C until analysed. The dilution factor was accounted for in the data analysis. After i.t. dosing, animals were euthanized with isoflurane or pentobarbital at defined timepoints after dosing, blood samples taken from the vena jugularis or arteria carotis, handled and stored as described above. The rats were bled to drain as much blood as possible from the lungs. The lungs including the trachea were carefully dissected out with all non-relevant tissue removed, placed in pre-weighed vials and weighed. The lung vials were stored at –70°C until analyzed.
Lung tissue was frozen in liquid nitrogen and homogenised using a CryoPrep pneumatic hammer. The homogenisation of the tissue and the extraction of the compound were done in 4ml Ringer solution with an Adaptive Focused Acoustic Instrument. 50µl of the supernatant was transferred to a 96-well plate. All lung, blood and plasma samples were analysed by LC-MS/MS using a selective and sensitive method. Peak areas were used in comparison to those produced by the standard curve to determine parent compound concentrations. Homogenate concentrations were adjusted to account for the sample dilutions to give tissue concentrations.

Data set [6] is described as follows: Lipophilicity (LogD), shake flask. The format is physicochemical. To be noted: 1-octanol / phosphate buffer, octanol-water, phosphate buffer pH 7.4. As for the experimental part:
as §1
The octanol-water partition coefficient (LogD) was measured using the shake flask method. 600µL of 1-octanol was added to a vial with 6µL of 10mM DMSO-solution of the test compound. 600µL of 10mM sodium phosphate buffer adjusted to pH 7.4 was added and equilibrium was performed by vigorous shaking for ten minutes with an Eppendorf mixer. The phases were separated by centrifugation. The samples were analysed by HPLC with UV-detection at 254nm.

The target of data set [7] is A2a (Homo sapiens, UniProt P29274). In words: Human A2a receptor pharmacology: cAMP Alphascreen in CHO-K1 cells. The format is cell-based. Also on record: expressed in transfected cells; host or cells: CHO-K1. To be noted: average (SD); for Emax: CHO-K1, 100% = 10 μmol/L NECA, read-out: A2a human CHO-K1 cells Intrinsic activity; for EC50: cAMP generation. As for the experimental part: as §1
Chain of A2a (P29274 whole entry): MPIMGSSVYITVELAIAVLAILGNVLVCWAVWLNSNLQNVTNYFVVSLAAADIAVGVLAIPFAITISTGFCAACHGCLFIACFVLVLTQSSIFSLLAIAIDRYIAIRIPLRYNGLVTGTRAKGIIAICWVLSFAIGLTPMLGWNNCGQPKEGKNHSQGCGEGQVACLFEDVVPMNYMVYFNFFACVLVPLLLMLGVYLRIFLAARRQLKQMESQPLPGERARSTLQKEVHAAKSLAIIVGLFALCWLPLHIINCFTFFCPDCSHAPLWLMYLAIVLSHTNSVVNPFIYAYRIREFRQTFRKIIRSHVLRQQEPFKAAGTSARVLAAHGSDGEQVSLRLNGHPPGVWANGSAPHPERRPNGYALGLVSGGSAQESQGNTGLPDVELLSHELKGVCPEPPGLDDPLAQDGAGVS
Chinese hamster ovary CHO-K1 cells stably expressing human A2a and A2b receptors were stored as 1ml aliquots at -150 °C in freezing medium, thawed immediately prior to assay. […] Cells (10000 cells/well) were incubated with test compounds prepared as serial dilutions. Potency (EC50) and efficacy (% of maximal response) were calculated from data fitted to a 4-parameter logistic function. The signal of 10µM NECA represented the maximal cAMP response (i.e. 100% of efficacy) produced by these cells.
(In Alpha technology, singlet oxygen from a donor bead excites a nearby acceptor bead.)

A short description of data set [8]: Substance solubility in phosphate buffer. It counts as physicochemical. To be noted: aqueous buffer, thermodynamic from solid; phosphate buffer pH 7.4, dry compound in solid state. The procedure:
as §1
Solubility was measured in phosphate buffer at pH 7.4 using dry compounds in solid state.

Data on three compounds can be found in publication PMC4492750, “The discovery of a selective and potent A2a agonist with extended lung retention” (Pharmacology Research & Perspectives, 2015).

As usually defined, the IC50 is the concentration at which inhibition is half-maximal. The low end stands for greater potency in that assay, the high end for weaker potency in that assay. What is called half-life is the time in which the quantity being followed falls by half. For orientation: logD means the decadic logarithm of the distribution of all forms, ionised or not, between an organic phase and buffer at a given pH. The low end stands for lower lipophilicity, the high end for higher lipophilicity. For the compound `CCNC(=O)[C@H]1O[C@@H](n2cnc3c(N)nc(NCCc4ccc(CCC(=O)O)cc4)nc32)[C@H](O)[C@@H]1O` [CGS21680, 3-[4-[2-[[6-amino-9-[(2R,3R,4S,5S)-5-(ethylcarbamoyl)-3,4-dihydroxy-tetrahydrofuran-2-yl]purin-2-yl]amino]ethyl]phenyl]propanoic acid, reference compound], the fraction unbound at 18 h, 10 μM in data set [1] was determined as 0.17. The “Effect on lung inflammation” value in data set [2] is given as “inhibited lung inflammation”. Also, in data set [3], the “Pretreatment time at which maximal efficacy was seen” value turned out to be 30 min. Besides, in data set [4], the IC50 was 6.9 nM and the Emax amounted to 63.5%. Moreover, the Rat blood clearance in data set [5] (mean of n = 3) is given as 26 mL/min per kg. For the same compound, in data set [5] (rat), the half-life is 1 h and the Kp at 24 h was less than 0.08. The “Percentage of dose remaining in lung at 4 h” value in data set [5] (rat, single i.t. dose 300 μg/kg, 4 h) was “less than 1%”. For the same compound, the logD at 10 min in data set [6] is less than -1.
By EC50 is commonly meant the midpoint of the concentration-response curve. A high value points to weaker potency. A word on the solubility: it is how much of the substance goes into solution per volume. By bioavailability is commonly meant the share of a dose that reaches the circulation, judged against a reference dose that is usually intravenous. Turning to `CCNC(=O)[C@H]1O[C@@H](n2cnc3c(NC(CC)CC)nc(NCCNC(=O)Nc4ccncc4)nc32)[C@H](O)[C@@H]1O` [Compound 1, (2S,3S,4R,5R)-N-ethyl-5-[6-(1-ethylpropylamino)-2-[2-(4-pyridylcarbamoylamino)ethylamino]purin-9-yl]-3,4-dihydroxy-tetrahydrofuran-2-carboxamide], the fraction unbound at 18 h, 10 μM in data set [1] was determined as 0.2. Further, in data set [4], half-maximal inhibition (IC50) required 3.2 nM and the Emax stood at 53.4%. In data set [7], the Emax worked out at 102% and the EC50 worked out at 2.4 nM. Besides, the solubility in data set [8] is greater than 1000 µM. The Rat blood clearance in data set [5] (mean of n = 3) is 65 mL/min per kg. For the same compound, in data set [5] (rat), the half-life is 6 h and the Kp at 24 h was found to be 1.8. Moreover, in data set [5] (whole blood, 6 umol/kg, rat, oral, mean of n = 3, read-out: Rat oral F (bioavailability)), the bioavailability came to 1.4%. The compound also registered a logD at 10 min in data set [6] of 2.
Take `CCNC(=O)[C@H]1O[C@@H](n2cnc3c(NCC(c4ccccc4)c4ccccc4)nc(NCCNC(=O)Nc4cc[n+](C)cc4)nc32)[C@H](O)[C@@H]1O` [Compound 3, (2S,3S,4R,5R)-5-[6-(2,2-diphenylethylamino)-2-[2-[(1-methylpyridin-1-ium-4-yl)carbamoylamino]ethylamino]purin-9-yl]-N-ethyl-3,4-dihydroxy-tetrahydrofuran-2-carboxamide]: the fraction unbound at 18 h, 10 μM in data set [1] was determined as 0.11. In addition, in data set [4], the IC50 worked out at 0.2 nM and the Emax turned out to be 58%. Besides, in data set [7], the Emax amounted to 96.2% and the EC50 was 0.4 nM. Also, in data set [8], the solubility is 420 µM. Further, the Rat blood clearance in data set [5] (mean of n = 3) turned out to be 42 mL/min per kg. In data set [5] (rat), the half-life was 80 h and the Kp at 24 h came to 1800. The “Percentage of dose remaining in lung at 24 h” value in data set [5] (rat, single i.t. dose (17 and 20 μmol/kg for compounds 2 and 3 as printed in Fig. 5), 24 h) came to 52%. The logD at 10 min in data set [6] was -0.35.
